Molecular target: recombinant human S1P1 receptor (Homo sapiens, UniProt P21453)
Assay: GTPγS assay to determine EC50 values
Format: biochemical
Conditions: 35S-GTPγS binding, membrane preparations of CHO cells expressing recombinant human S1P1 receptor
Method: The pH is 7.4. Test compounds are dissolved and diluted in 100% DMSO and pre-incubated at room temperature for 30 min in 150 μl of the above assay buffer, in the absence of ^35S-GTPγS. After addition of 50 μl of ^35S-GTPγS, the assay is incubated for 1 h at room temperature. […] Membrane-bound ^35S-GTPγS is measured with a TopCount from Packard Biosciences.
Specific binding is determined by subtracting non-specific binding from maximal binding. Maximal binding is the amount of cpm bound to the Multiscreen plate in the presence of 10 μM of S1P. Non-specific binding is the amount of binding in the absence of an agonist in the assay.
The EC50 values were determined according to the method described above.

recombinant human S1P1 receptor, sequence (P21453 whole entry): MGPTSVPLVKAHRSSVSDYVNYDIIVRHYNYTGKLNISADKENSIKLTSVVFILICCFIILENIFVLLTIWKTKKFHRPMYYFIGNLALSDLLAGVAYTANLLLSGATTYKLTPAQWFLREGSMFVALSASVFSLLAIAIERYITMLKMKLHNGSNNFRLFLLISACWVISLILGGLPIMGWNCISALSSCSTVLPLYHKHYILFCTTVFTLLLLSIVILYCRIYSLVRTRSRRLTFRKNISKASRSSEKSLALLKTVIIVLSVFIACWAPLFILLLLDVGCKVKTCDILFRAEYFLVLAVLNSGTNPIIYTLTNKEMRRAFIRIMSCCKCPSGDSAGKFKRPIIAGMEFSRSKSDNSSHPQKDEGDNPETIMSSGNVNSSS

SMILES: Cc1cc(CCC(=O)c2sc(C)c3c2C[C@@H]2[C@H]3C2(C)C)cc(C)c1OCC(O)CNC(=O)CN (stereo partly drawn) [Example 234, 2-amino-N-(3-{2,6-dimethyl-4-[3-oxo-3-((1aS,5aR)-1,1,2-trimethyl-1,1a,5,5a-tetrahydro-3-thia-cyclopropa[a]pentalen-4-yl)-propyl]-phenoxy}-2-hydroxy-propyl)-acetamide]
- EC50: 2.7 nM

SMILES: Cc1sc(C(=O)CCc2ccc(C(=O)NCCN)cc2)c2c1[C@H]1[C@@H](C2)C1(C)C [Example 31]
- EC50: 6 nM

SMILES: COc1cc(CCC(=O)c2sc(C)c3c2CC2C3C2(C)C)cc(Cl)c1OCC(O)CN1CCNCC1 (stereo not drawn) [Example 175]
- EC50: 28 nM

SMILES: Cc1cc(CCC(=O)c2sc(C)c3c2C[C@@H]2[C@H]3C2(C)C)ccc1OCCN(C)C [Example 37]
- EC50: 58 nM

SMILES: Cc1cc(CCC(=O)c2sc(C)c3c2CC2C3C2(C)C)ccc1OCC(O)CNCCC(=O)O (stereo not drawn) [Example 48]
- EC50: 2 nM

SMILES: Cc1cc(CCC(=O)c2sc(C)c3c2C[C@@H]2[C@H]3C2(C)C)cc(C)c1OCC(O)CN (stereo partly drawn) [Example 99, 3-[4-(3-amino-2-hydroxy-propoxy)-3,5-dimethyl-phenyl]-1-((1aS,5aR)-1,1,2-trimethyl-1,1a,5,5a-tetrahydro-3-thia-cyclopropa[a]pentalen-4-yl)-propan-1-one]
- EC50: 1.1 nM

SMILES: Cc1sc(C(=O)CCc2ccc(OCC(O)CNCCC(=O)O)c(Cl)c2)c2c1C1C(C2)C1(C)C (stereo not drawn) [Example 60]
- EC50: 1.4 nM

SMILES: Cc1sc(C(=O)CCc2ccc(CCC(N)=O)cc2)c2c1[C@H]1[C@@H](C2)C1(C)C [Example 13]
- EC50: 13 nM

SMILES: COc1cc(CCC(=O)c2sc(C)c3c2CC2C3C2(C)C)cc(Cl)c1OCCN1CCC(C(=O)O)C1 (stereo not drawn) [Example 149]
- EC50: 2 nM

SMILES: Cc1cc(CCC(=O)c2sc(C)c3c2C[C@@H]2[C@H]3C2(C)C)cc(C)c1CC(O)CO (stereo partly drawn) [Example 239, 3-[4-(2,3-dihydroxy-propyl)-3,5-dimethyl-phenyl]-1-((1aS,5aR)-1,1,2-trimethyl-1,1a,5,5a-tetrahydro-3-thia-cyclopropa[a]pentalen-4-yl)-propan-1-one]
- EC50: 0.8 nM

SMILES: Cc1sc(C(=O)CCc2ccc(CCCN)cc2)c2c1[C@H]1[C@@H](C2)C1(C)C [Example 2]
- EC50: 3 nM

SMILES: CCc1cc(CCC(=O)c2sc(C)c3c2CC2C3C2(C)C)cc(C)c1OCC(O)CNC(=O)CO (stereo not drawn) [Example 244]
- EC50: 1.1 nM

SMILES: Cc1sc(C(=O)CCc2ccc(CC(O)CO)cc2)c2c1[C@H]1[C@@H](C2)C1(C)C (stereo partly drawn) [Example 1, 3-[4-((2S/R)-2,3-dihydroxy-propyl)-phenyl]-1-((1aS,5aR)-1,1,2-trimethyl-1,1a,5,5a-tetrahydro-3-thia-cyclopropa[a]pentalen-4-yl)-propan-1-one]
- EC50: 12 nM

SMILES: COCC(O)COc1c(C)cc(CCC(=O)c2sc(C)c3c2C[C@@H]2[C@H]3C2(C)C)cc1C (stereo partly drawn) [Example 233, 3-[4-(2-Hydroxy-3-methoxy-propoxy)-3,5-dimethyl-phenyl]-1-((1aS,5aR)-1,1,2-trimethyl-1,1a,5,5a-tetrahydro-3-thia-cyclopropa[a]pentalen-4-yl)-propan-1-one]
- EC50: 2.3 nM

SMILES: Cc1cc(CCC(=O)c2sc(C)c3c2C[C@@H]2[C@H]3C2(C)C)cc(C)c1CCC(=O)NC(CO)CO [Example 237, 3-{2,6-Dimethyl-4-[3-oxo-3-((1aS,5aR)-1,1,2-trimethyl-1,1a,5,5a-tetrahydro-3-thia-cyclopropa [a]pentalen-4-yl)-propyl]-phenyl}-N-(2-hydroxy-1-hydroxymethyl-ethyl)-propionamide]
- EC50: 2.9 nM

— patent US7846964B2, “Thiophene derivatives as spingosine-1-phosphate-1 receptor agonists” (Actelion Pharmaceuticals Ltd., priority 2005, dated 2010)
